Columns and labels:
[1] = test system: VCAM-1 expression in HUVECs; assay: TNF-α-induced VCAM-1 expression in HUVECs, western blot; assay type: cell-based, Human
Protocol: Human umbilical vein endothelial cells (HUVEC) (Walkersville, Md.) were serially cultured on gelatin-coated dishes and propagated in M199 medium supplemented with 20% bovine calf serum, 2 mM L-glutamine, 50 μg/ml endothelial cell growth factor, 90 μg/ml heparin, and 100 U/ml of penicillin and streptomycin. The cells were treated with FIR for 10 min, 20 min, 40 min using WS™ TY101 FIR emitter (WS Far Infrared Medical Technology Co., Ltd., Taipei, Taiwan). The top emitter was set at a height of 25 cm above the surface of the cells. After FIR treatment, the cells were collected at 0 h, 2 h, 4 h, 6 h, 24 h, and 48 h, and then the expression of HO-1 was analyzed by western blot and quantified by laser densitometry. The cells were lysed in a sample buffer (125 mM Tris [pH 6.8], 12.5% glycerol, 2% SDS, 50 mM sodium fluoride, and trace bromophenol blue) and proteins were separated by SDS-PAGE. Following transfer to a nitrocellulose membrane, blots were blocked with PBS and nonfat milk (5%) and then incubated with antibodies directed against HO-1 (1:500). Membranes were then washed in PBS, incubated with horseradish peroxidase-conjugated goat anti-rabbit or anti-goat antibody and developed with commercial chemoluminescence reagents (Amersham, Arlington Heights, Ill.). […]
The expression of VCAM-1 was analyzed under different combinations of TNFα, FIR, HO-1 inhibitor by a western blot. […]

[2] = test system: HO-1 expression; assay: HO-1 expression by western blot quantified by laser densitometry; assay type: cell-based, Human; settings: relative to control cells; SnPP 20 μM per Table 2
Protocol: Human umbilical vein endothelial cells (HUVEC) (Walkersville, Md.) were serially cultured on gelatin-coated dishes and propagated in M199 medium supplemented with 20% bovine calf serum, 2 mM L-glutamine, 50 μg/ml endothelial cell growth factor, 90 μg/ml heparin, and 100 U/ml of penicillin and streptomycin. The cells were treated with FIR for 10 min, 20 min, 40 min using WS™ TY101 FIR emitter (WS Far Infrared Medical Technology Co., Ltd., Taipei, Taiwan). The top emitter was set at a height of 25 cm above the surface of the cells. After FIR treatment, the cells were collected at 0 h, 2 h, 4 h, 6 h, 24 h, and 48 h, and then the expression of HO-1 was analyzed by western blot and quantified by laser densitometry. […]
U937 cells were classified into 10 groups (F, T, TF, STF, HTF, NTF, S, H, N, or C) according to the combination of different treatment, and the experimental conditions of groups are listed in Table 2. […] After 1 hour of incubation, nonadherent monocytes were removed by PBS washing and the radioactivity associated with adherent cells were quantified by scintillation spectrometry after lysis with 0.2% SDS/0.2 N NaOH. Additionally, the expression of HO-1 was analyzed by western blot and quantified by laser densitometry. […]

C=Cc1c2[n-]c(c1C)/C=c1\[n-]/c(c(C)c1C=C)=C\c1[n-]c(c(CCC(=O)O)c1C)/C=c1\[n-]c(c(C)c1CCC(=O)O)=C2.[Sn+4] [SnPP, tin protoporphyrin]
FIR-induced inhibitory effect of VCAM-1 expression ([1]; TNF-α 100 ng/ml + 40 min FIR, SnPP 10 μM (group 3) and 20 μM (group 4), higher expression at 20 μM): reversed | expression of VCAM-1 ([1]; single treatment with SnPP 20 μM, without pre-treatment with TNF-α (group 6)): did not induce | HO-1 expression, of that of the control cells [2]: approximately 20%

— US20120283802A1, “FAR-INFRARED RADIATION IN USE OF IMPROVING PATENCY OF ARTERIOVENOUS FISTULA, DECREASING FAILURE OF ARTERIOVENOUS FISTULA MATURATION, AND PREVENTING AND/OR AMELIORATING PERIPHERAL ARTERY DISEASES” (priority 2007, published 2012)
